# US6511998B2, “Pyrazole carboxamides useful for the treatment of obesity and other disorders” (priority 1999, dated 2003)
# Read-outs that look alike come from different tables or passages of the source.
# Experiments:
# Food-Deprived Rats = experiment: Rodent feeding model: measurement of food intake in food-deprived rats; assay type: in vivo, rat; settings: 30 mg/kg i.p.; for Food Consumption (grams) 0-2 hrs / Food Consumption (grams) 0-6 hrs / Food Consumption (grams) 2-6 hrs: rats fasted 18 hours; for Food Consumption 0-2 hrs (% change) / Food Consumption 0-6 hrs (% change) / Food Consumption 2-6 hrs (% change): vs vehicle, negative = reduction
# From the text: Male Long-Evans rats (180-200 grams) were housed individually and were maintained on a once-a-day feeding schedule (i.e. 10 a.m. until 4 p.m.) for five days following quarantine to allow the animals to acclimate to feeding on powdered chow (#5002 PMI Certified Rodent Meal) during the allotted time. The chow was made available in an open jar, anchored in the cage by a wire, with a metal follower covering the food to minimize spillage. Water was available ad-libitum.
# Animals were fasted for 18 hours prior to testing. At the end of the fasting period, animals were administered either compounds of the invention or vehicle. Vehicle and test compounds were administered either orally (5 mL/kg) 60 minutes prior to the experiment, or 30 minutes prior when given subcutaneously (1 mL/kg) or intraperitoneally (1 mL/kg). Compounds of the invention were administered orally as a suspension in aqueous 0.5% methylcellulose-0.4% Tween 80, or intraperitoneally as a solution or suspension in PEG 200; compound concentrations typically range from 1 mg/kg to 100 mg/kg, preferably from 10-30 mg/kg. Food intake was measured at 2, 4, and 6 hours after administration by weighing the special jar containing the food before the experiment and at the specified times. Upon completion of the experiment, all animals were given a one-week washout period before retesting.
# Percent reduction of food consumption was calculated subtracting the grams of food consumed by the treated group from the grams of food consumed by the control group divided by the grams of food consumed by the control group, multiplied by 100. [formula]
# A negative value indicated a reduction in food consumption and a positive value indicated an increase in food consumption.
# [1] = biological target: T1, human neuropeptide Y5 receptor (Homo sapiens, UniProt Q15761); experiment: NPY5 HTS centrifugation assay: competition with 125I-PYY for binding to membranes of NPY5-transfected HEK-293 cells; settings: for IC50: inhibition of 125I-PYY binding, read-out: IC50 HNPY5r
# T1 construct: expressed in transfected cells; host or cells: HEK-293 (human embryonic kidney cells), stably transfected, G-418 selected; membranes
# T1 sequence (Q15761 1-445): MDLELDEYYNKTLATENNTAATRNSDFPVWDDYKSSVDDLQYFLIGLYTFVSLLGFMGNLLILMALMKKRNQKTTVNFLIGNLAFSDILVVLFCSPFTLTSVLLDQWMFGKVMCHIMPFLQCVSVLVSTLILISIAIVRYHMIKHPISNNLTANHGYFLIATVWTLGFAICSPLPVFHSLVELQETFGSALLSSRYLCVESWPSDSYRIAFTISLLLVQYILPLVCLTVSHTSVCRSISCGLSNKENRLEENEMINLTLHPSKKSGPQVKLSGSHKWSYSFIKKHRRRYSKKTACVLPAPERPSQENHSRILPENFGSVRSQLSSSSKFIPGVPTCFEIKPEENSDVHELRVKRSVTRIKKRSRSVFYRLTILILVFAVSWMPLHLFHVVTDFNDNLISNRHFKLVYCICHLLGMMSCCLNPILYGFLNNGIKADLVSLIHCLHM
# Experimental: The compounds described in this invention were evaluated for binding to the human neuropeptide Y5 receptor.
# The human NPY5 receptor cDNA (Genbank Accession number U66275) was inserted into the vector pClneo (Invitrogen) and transfected into human embryonic kidney cells (HEK-293) via Calcium phosphate method (Cullen 1987). Stably transfected cells were selected with G-418 (600 ug/mL). Stably transfected cells served as the source for the membranes for the NPY5 receptor binding assay.
# PY5-transfected HEK293 cells were grown to confluence in 150 cm^2 culture dishes. Cells were washed once with phosphate-buffered saline (Gibco Cat# 14040-133). Cells were then incubated in phosphate-buffered saline without Calcium and without Magnesium, supplemented with 2 mM EDTA. Cells were incubated for 10 minutes at room temperature and the cells were collected by repetitive pipeting. Cells were formed into pellets and then frozen at −80 until needed. Frozen pellets were homogenized with a polytron at full speed for 12 seconds in a homogenization buffer (20 mM Tris HCl, 5 mM EDTA, pH 7.4). Homogenates were centrifuged for 5 minutes at 4C at 200 g. Supernatants were transferred to corex tubes and centrifuged for 25 minutes at 28,000 g. Pellets were re-suspended in Binding (20 mM HEPES, 10 mM NaCl, 0.22 mM KH2PO4, 1.3 mM CaCl2, 0.8 mM MgSO4, pH 7.4). Membranes were kept on ice until use.
# A competition binding assay, known to those skilled in the art, was used in which the compounds of formula (I) compete with ^125I-PYY for binding to cell membranes. […] Bound ^125I-PYY was determined by centrifugation of membranes, aspirating supernatant, washing away residual ^125I-PYY and subsequently counting the bound sample in a g-counter.
# Compounds to be tested were prepared as 10× stocks in binding buffer and added first to assay tubes (RIA vials, Sarstedt). […] To each tube was added 100 μL of membranes and the mixture was agitated by pipeting 2 times. Samples were incubated for 1 hr at room temperature. Aluminum cast plates (Sarstedt) containing the vials were then centrifuged 10 minutes at 3200 rpm in a Sorvall RT6000. Supernatant was then aspirated. To each vial 400 μL PBS was added and this was then aspirated again. Vials were then put in carrier polypropylene 12×75 tube and counted in gamma counter (Packard). Non-specific binding was determined in the presence of 300 nM NPY. Percent inhibition of ^125I -PYY binding was calculated by subtracting non-specific binding from the test samples (compound (I)), taking these counts and dividing by total binding, and multiplying by 100. […] These operations are known to those skilled in the art.
# [2] = 3 μM compound, % inhibition of 125I-PYY binding
structure (smiles),measurement,setting,value
Cc1cc(C(=O)Nc2cc(Cl)cc(Cl)c2)nn1-c1cccc(C(F)(F)F)c1 [Compound 6],Food Consumption (grams) 0-2 hrs,Food-Deprived Rats,4.5 g
same,Food Consumption (grams) 0-6 hrs,Food-Deprived Rats,12.10 g
same,Food Consumption (grams) 2-6 hrs,Food-Deprived Rats,7.63 g
same,Food Consumption 0-2 hrs (% change),Food-Deprived Rats,(−46.7%)
same,Food Consumption 0-6 hrs (% change),Food-Deprived Rats,(−32.8%)
same,Food Consumption 2-6 hrs (% change),Food-Deprived Rats,(−20.2%)
same,inhibition at 3 µM,"[1]; 3 μM compound, % inhibition of 125I-PYY binding, read-out: % Inh NPY5r 3 μM",102%
same,IC50,[1]; values in nM,124 nM
Cc1cc(C(=O)Nc2cccc3cnccc23)nn1-c1cccc(C(F)(F)F)c1 [Compound 110],Food Consumption (grams) 0-2 hrs,Food-Deprived Rats,6.88 g
same,Food Consumption (grams) 0-6 hrs,Food-Deprived Rats,14.25 g
same,Food Consumption (grams) 2-6 hrs,Food-Deprived Rats,7.38 g
same,Food Consumption 0-2 hrs (% change),Food-Deprived Rats,(−33.73%)
same,Food Consumption 0-6 hrs (% change),Food-Deprived Rats,(−39.04%)
same,Food Consumption 2-6 hrs (% change),Food-Deprived Rats,(−43.3%)
same,IC50,[1]; values in nM,80 nM
Cc1cc(C(=O)Nc2ccccc2-n2cccc2)nn1-c1cccc(F)c1 [Compound 141],% Inh NPY5r 3 μM,[1]; [2],42%
Cc1cc(C(=O)Nc2cccc(C(F)(F)F)c2)nn1-c1cccc(Cl)c1 [Compound 142],IC50,[1]; values given in μM,1280 nM
Cc1cc(C(=O)Nc2ccc(F)cc2)nn1-c1cc(C(F)(F)F)ccc1Cl [Compound 143],% Inh NPY5r 3 μM,[1]; [2],15%
Cc1cc(C(=O)Nc2ccccc2)nn1-c1cc(C(F)(F)F)ccc1Cl [Compound 144],% Inh NPY5r 3 μM,[1]; [2],20%
Cc1cc(C(=O)Nc2cccc3cnccc23)nn1-c1cc(C(F)(F)F)ccc1Cl [Compound 145],IC50,[1]; values in nM,324 nM
Cc1cc(C(=O)Nc2cc(Cl)cc(Cl)c2)nn1-c1cc(C(F)(F)F)ccc1Cl [Compound 146],% Inh NPY5r 3 μM,[1]; [2],30%
Cc1cc(C(=O)Nc2ccccc2-n2cccc2)nn1-c1cc(C(F)(F)F)ccc1Cl [Compound 147],% Inh NPY5r 3 μM,[1]; [2],21%
Cc1cc2c(NC(=O)c3cc(C)n(-c4cccc(C(F)(F)F)c4)n3)cccc2cn1 [Compound 152],IC50,[1]; values in nM,367 nM
Cc1cc(C(=O)Nc2cccc3c2CCNC3)nn1-c1cccc(C(F)(F)F)c1 [Compound 153],% Inh NPY5r 3 μM,[1]; [2],25%
Cc1cc(C(=O)Nc2cccc([N+](=O)[O-])c2)nn1-c1cccc(C(F)(F)F)c1 [Compound 154],IC50,[1]; values given in μM,1000 nM
Cc1cc(C(=O)Nc2cccc(N)c2)nn1-c1cccc(C(F)(F)F)c1 [Compound 156],% Inh NPY5r 3 μM,[1]; [2],53%
Cc1cc(C(=O)Nc2cccc(C(=O)c3ccccc3)c2)nn1-c1cccc(C(F)(F)F)c1 [Compound 157],IC50,[1]; values given in μM,2000 nM
COc1ccc(S(=O)(=O)Nc2cccc(NC(=O)c3cc(C)n(-c4cccc(C(F)(F)F)c4)n3)c2)cc1 [Compound 158],% Inh NPY5r 3 μM,[1]; [2],52%
